{
  "source": "patent US7531193B2",
  "about": "(priority 2004, dated 2009)",
  "tested_on": "human striated muscle cell innervation with spinal cord and spinal ganglion explants from rat embryos",
  "format": "cell-based, human (muscle cells), rat (embryo explants)",
  "note": "Values joined by “and” are separate entries in the source; they are usually repeats but may differ in a detail not shown here. Equal entries are not always repeated.",
  "data": [
    {"smiles": "C/C=C/C=C\\CC/C=C/C(=O)NCC(C)C", "note": "[Pure spilanthol, spilanthol]", "values": [
      {"measurement": "Effect on muscle contractions (conclusion)", "value": "lead to a blockage of muscle contractions"},
      {"measurement": "Frequency of contractions (%), incubation without washout, 5 min", "value": "0% and 7%"},
      {"measurement": "Frequency of contractions (%), incubation without washout, 1 h", "value": 0, "unit": "%"},
      {"measurement": "Frequency of contractions (%), incubation without washout, 6 h", "value": "0% and 4%"},
      {"measurement": "Frequency of contractions (%), recuperation after washout, 1 h", "value": 0, "unit": "%"},
      {"measurement": "Incubation time after which muscle contractions are blocked", "value": 5, "unit": "min"},
      {"measurement": "Recuperation of contractile activity (conclusion)", "value": "not observed"},
      {"measurement": "Time the fibres remain blocked after elimination of the substance", "value": 24, "unit": "h"},
      {"measurement": "Time until which the blockage is maintained during incubation", "value": 6, "unit": "h"}
    ]}
  ]
}
